According to ChEMBL document CHEMBL4814018, “Rationally designed TNF-α inhibitors: Identification of promising cytotoxic agents” (Bioorg Med Chem Lett, 2021):
Calls of active or inactive are those of the source. No cut-off for these calls is given here.

What was measured:
BV-2 [1] = assay: Antiinflammatory activity against mouse BV2 cells assessed as inhibition of LPS-induced TNFalpha production at 1 uM by enzyme immunoassay; format: functional
BV-2 [2] = assay: Antiinflammatory activity against mouse BV2 cells assessed as reduction in LPS-induced IL6 production at 1 uM by enzyme immunoassay; format: functional, cell-based
BV-2 [3] = assay: Cytotoxicity against mouse BV2 cells incubated for 48 hrs by MTT assay; format: cell-based; details: BV-2, 48 h

O=C1COCCN1c1ccc(N2C(=O)C(Cl)C2c2cn(Cc3ccc4ccccc4c3)c3ccccc23)cc1 (stereo not drawn)
Activity (BV-2 [1]): Active
Activity (BV-2 [2]): Active
IC50 (BV-2 [3]): > 10 µM
